# Measured values published in patent US12172983B2, “EGFR inhibitors” (Blueprint Medicines Corporation, priority 2019, dated 2024).
# Where two headings read alike, the source gives them in different places.
# Columns and labels:
# EGFR (L858R T790M C797S) = molecular target: T1, EGFR (L858R T790M C797S) (Homo sapiens, UniProt P00533, C797S/L858R/T790M); test: Biochemical EGFR inhibition assay (Caliper mobility shift), EGFR LRTMCS mutant; conditions: inhibitory activity against EGFR LRTMCS mutant; apparent IC50; read-out: Ext Enz LRTMCS
# T1 construct: purchased SignalChem E10-122VG
# T1 sequence (P00533 25-1210 T790M/C797S/L858R): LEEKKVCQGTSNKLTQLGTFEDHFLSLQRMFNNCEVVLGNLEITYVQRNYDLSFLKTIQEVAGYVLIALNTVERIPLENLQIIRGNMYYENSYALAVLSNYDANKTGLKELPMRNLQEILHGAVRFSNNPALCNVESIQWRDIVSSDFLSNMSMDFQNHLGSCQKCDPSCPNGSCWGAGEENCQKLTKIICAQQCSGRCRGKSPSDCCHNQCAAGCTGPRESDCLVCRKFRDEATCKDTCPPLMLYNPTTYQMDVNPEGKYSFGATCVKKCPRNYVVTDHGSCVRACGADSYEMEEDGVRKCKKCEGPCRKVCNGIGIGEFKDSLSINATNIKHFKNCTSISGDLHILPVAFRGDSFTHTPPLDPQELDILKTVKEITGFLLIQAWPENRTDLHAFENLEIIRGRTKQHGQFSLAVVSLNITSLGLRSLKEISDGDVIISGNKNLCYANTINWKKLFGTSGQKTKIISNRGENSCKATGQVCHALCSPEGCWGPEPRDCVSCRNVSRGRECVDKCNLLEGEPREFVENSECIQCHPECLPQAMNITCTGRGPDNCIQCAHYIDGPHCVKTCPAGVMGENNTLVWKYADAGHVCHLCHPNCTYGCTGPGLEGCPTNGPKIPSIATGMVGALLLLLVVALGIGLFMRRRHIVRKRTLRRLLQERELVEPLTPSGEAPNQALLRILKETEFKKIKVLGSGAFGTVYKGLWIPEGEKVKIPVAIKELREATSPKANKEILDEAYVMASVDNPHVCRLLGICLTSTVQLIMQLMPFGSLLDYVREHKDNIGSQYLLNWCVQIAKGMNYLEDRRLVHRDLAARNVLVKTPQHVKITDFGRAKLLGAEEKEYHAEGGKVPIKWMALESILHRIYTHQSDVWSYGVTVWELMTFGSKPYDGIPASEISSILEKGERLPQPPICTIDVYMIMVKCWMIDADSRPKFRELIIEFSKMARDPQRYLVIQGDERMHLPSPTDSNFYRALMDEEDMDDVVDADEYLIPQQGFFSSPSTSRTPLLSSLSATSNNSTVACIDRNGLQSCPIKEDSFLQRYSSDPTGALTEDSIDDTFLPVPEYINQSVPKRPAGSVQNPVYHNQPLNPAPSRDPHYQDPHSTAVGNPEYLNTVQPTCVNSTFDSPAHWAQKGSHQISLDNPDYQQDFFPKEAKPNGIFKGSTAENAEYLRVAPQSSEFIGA
# Procedure: Reactions proceeded until between 10% to 20% total peptides were phosphorylated at room temperature (25° C.) and were terminated with 35 mM 2,2′,2″,2′″-(ethane-1,2-diyldinitrilo)tetraacetic acid (EDTA). Product was detected using the Caliper mobility shift detection method where the phosphorylated peptide (product) and substrate were electrophoretically separated and measured. Percent activity was plotted against log concentration of compound and points to generate an apparent IC50.
# [1] = tested on: phosphorylation of EGFR (Tyr1068) in NCI-H1975 cell line that harbors the EGFR L858R T790M mutations; test: NCI-H1975 pEGFR AlphaLISA assay; type: cell-based; conditions: 4-5 hours incubation, read-out: Ext pEGFR H1975
# Procedure: Inhibitory effects of the compounds of the disclosure were evaluated in cellular assays that measure level of intracellular phosphorylation of EGFR in NCI-H1975 cell line that harbors the EGFR L858R T790M mutations (ATCC, CRL-5908) using AlphaLISA sureFire ultra p-EGFR (Tyr1068) assay kit (PerkinElmer, ALSU-PEGFR-A50K). The NCI-H1975 cells were seeded at 12.5K/well in 22 μL into 384 well opti plate (PerkinElmer, 6007299) and adhering overnight at 37 C/5% CO2. On the next day, the test compounds and DMSO control were added into H1975 cell plate followed by incubation at 37 C/5% CO2 for 4-5 hours. The cells were then spin down in the 384-well plate and lysed with 10 μL of 1×AlphaLISA lysis buffer followed by shaking at 600 rpm for 10 minutes at room temperature. After that, 5 μL of an acceptor bead mix was added to each well followed by incubation at room temperature for 1.5-2 h in dark. Then 5 μL of a donor bead mix was added to each well followed by overnight incubation at room temperature in dark. On the next day, the plate was read at a compatible plate reader to obtain pEGFR signal. Percent of pEGFR inhibition was plotted against log concentration of compounds to generate IC50 values.
# [2] = Homo sapiens, NCI-H1975, inhibition of phosphorylation of mutant EGFR in NCI-H1975 cells
# [3] = inhibition of phosphorylation of mutant EGFR in NCI-H1975 cells
SMILES,IC50 (EGFR (L858R T790M C797S)) [nM],"IC50 [1, 2] [nM]","IC50 [1, 3] [nM]"
CC(C)c1ncc(N2C[C@H](CS(C)(=O)=O)[C@H]2C)c2cnc(Nc3ccnc(N4CC[C@@H](OC5CC5)[C@@H](F)C4)n3)cc12 [Compound 225],≤ 15,≤ 10,
"CO[C@@H]1[C@H](O)CN(c2nccc(Nc3cc4c(C(C)C)ccc(N5CC(CS(C)(=O)=O)C5)c4cn3)n2)CC1(F)F (single isomer, unassigned) [Compound 218, rac-5,5-difluoro-1-[4-[[5-isopropyl-8-[3-(methylsulfonylmethyl)azetidin-1-yl]-3-isoquinolyl]amino]pyrimidin-2-yl]-4-methoxy-piperidin-3-ol]",≤ 15,≤ 10,
"CC(C)c1ccc(N2CC(C)(CS(C)(=O)=O)C2)c2cnc(Nc3ccnc(N4CC[C@@H](O)[C@@](C)(F)C4)n3)cc12 (single isomer, unassigned) [Compound 112]",≤ 15,10.1 to 20,
"CC(C)c1ccc(N2CC(CS(=O)(=O)C3CC3)C2)c2cnc(Nc3ccnc(N4CC[C@@H](O)[C@@](C)(F)C4)n3)cc12 [Compound 170, (3S,4R)-1-{4-[(8-{3-[(cyclopropanesulfonyl)methyl]azetidin-1-yl}-5-(propan-2-yl)isoquinolin-3-yl)amino]pyrimidin-2-yl}-3-fluoro-3-methylpiperidin-4-ol]",≤ 15,≤ 10,
"CO[C@@H]1CCN(c2nccc(Nc3cc4c(C(C)C)cnc(N5C[C@H](CS(C)(=O)=O)[C@H]5C)c4cn3)n2)C[C@@H]1O (single isomer, unassigned) [Compound 105, (3S,4R)-1-[4-({8-[(2R,3S)-3-(methanesulfonylmethyl)-2-methylazetidin-1-yl]-5-(propan-2-yl)-2,7-naphthyridin-3-yl}amino)pyrimidin-2-yl]-4-methoxypiperidin-3-ol or (3R,4S)-1-[4-({8-[(2R,3S)-3-(methanesulfonylmethyl)-2-methylazetidin-1-yl]-5-(propan-2-yl)-2,7-naphthyridin-3-yl}amino)pyrimidin-2-yl]-4-methoxypiperidin-3-ol]",≤ 15,≤ 10,
"CCS(=O)(=O)C[C@H]1CN(c2ncc(C(C)C)c3cc(Nc4ccnc(N5CC[C@@H](OCCO)[C@@H](F)C5)n4)ncc23)[C@@H]1C [Compound 249, 2-{[(3S,4R)-1-[4-({8-[(2R,3S)-3-[(ethanesulfonyl)methyl]-2-methylazetidin-1-yl]-5-(propan-2-yl)-2,7-naphthyridin-3-yl}amino)pyrimidin-2-yl]-3-fluoropiperidin-4-yl]oxy}ethan-1-ol]",≤ 15,≤ 10,
"CO[C@H]1CCN(c2nccc(Nc3cc4c(C(C)C)ccc(N5C[C@H](CS(C)(=O)=O)[C@H]5C)c4cn3)n2)C[C@H]1F [Compound 123, N-(2-((3R,4S)-3-fluoro-4-methoxypiperidin-1-yl)pyrimidin-4-yl)-5-isopropyl-8-((2R,3S)-2-methyl-3-((methylsulfonyl)methyl)azetidin-1-yl)isoquinolin-3-amine]",,≤ 10,
"CC(C)c1ccc(N2C[C@H](CS(C)(=O)=O)[C@H]2C)c2cnc(Nc3ccnc(N4CC[C@H](O)[C@@](C)(F)C4)n3)cc12 (single isomer, unassigned) [Compound 120, (3R,4R)-3-fluoro-1-[4-({8-[(2R,3S)-3-(methanesulfonylmethyl)-2-methylazetidin-1-yl]-5-(propan-2-yl)isoquinolin-3-yl}amino)pyrimidin-2-yl]-3-methylpiperidin-4-ol or (3S,4S)-3-fluoro-1-[4-({8-[(2R,3S)-3-(methanesulfonylmethyl)-2-methylazetidin-1-yl]-5-(propan-2-yl)isoquinolin-3-yl}amino)pyrimidin-2-yl]-3-methylpiperidin-4-ol]",,,10.1 to 20
"CO[C@@H]1CCN(c2nccc(Nc3cc4c(C(C)C)ccc(N5C[C@H](CS(C)(=O)=O)[C@H]5C)c4cn3)n2)C[C@H]1F (single isomer, unassigned) [Compound 278, N-{2-[(3R,4R)-3-fluoro-4-methoxypiperidin-1-yl]pyrimidin-4-yl}-8-[(2R,3S)-3-(methanesulfonylmethyl)-2-methylazetidin-1-yl]-5-(propan-2-yl)isoquinolin-3-amine or N-{2-[(3S,4S)-3-fluoro-4-methoxypiperidin-1-yl]pyrimidin-4-yl}-8-[(2R,3S)-3-(methanesulfonylmethyl)-2-methylazetidin-1-yl]-5-(propan-2-yl)isoquinolin-3-amine]",,20.1 to 30,
"CO[C@H]1CCN(c2nccc(Nc3cc4c(C(C)(C)N)ccc(N5C[C@H](CS(C)(=O)=O)[C@H]5C)c4cn3)n2)C[C@H]1F [Compound 312, 5-(2-aminopropan-2-yl)-N-(2-((3R,4S)-3-fluoro-4-methoxypiperidin-1-yl)pyrimidin-4-yl)-8-((2R,3S)-2-methyl-3-((methylsulfonyl)methyl)azetidin-1-yl)isoquinolin-3-amine]",≤ 15,,
"CC(C)c1cnc(N2CC(CS(C)(=O)=O)C2)c2cnc(Nc3ccnc(N4CC[C@@H](O)[C@@](C)(F)C4)n3)cc12 (single isomer, unassigned) [Compound 67]",,≤ 10,
"CC(C)c1ccc(N2C[C@H](CS(C)(=O)=O)[C@H]2C)c2cnc(Nc3ccnc(N4CC[C@H](O)[C@@](C)(F)C4)n3)cc12 (single isomer, unassigned) [Compound 119, (3S,4S)-3-fluoro-1-[4-({8-[(2R,3S)-3-(methanesulfonylmethyl)-2-methylazetidin-1-yl]-5-(propan-2-yl)isoquinolin-3-yl}amino)pyrimidin-2-yl]-3-methylpiperidin-4-ol or (3R,4R)-3-fluoro-1-[4-({8-[(2R,3S)-3-(methanesulfonylmethyl)-2-methylazetidin-1-yl]-5-(propan-2-yl)isoquinolin-3-yl}amino)pyrimidin-2-yl]-3-methylpiperidin-4-ol]",,20.1 to 30,
"CC(C)c1ccc(N2CC(CS(C)(=O)=O)C2)c2cnc(Nc3ccnc(N4CC[C@H](O)[C@@](C)(F)C4)n3)cc12 (single isomer, unassigned) [Compound 61, (3S,4S)-3-fluoro-1-[4-({8-[3-(methanesulfonylmethyl)azetidin-1-yl]-5-(propan-2-yl)isoquinolin-3-yl}amino)pyrimidin-2-yl]-3-methylpiperidin-4-ol or (3R,4R)-3-fluoro-1-[4-({8-[3-(methanesulfonylmethyl)azetidin-1-yl]-5-(propan-2-yl)isoquinolin-3-yl}amino)pyrimidin-2-yl]-3-methylpiperidin-4-ol]",,30.1 to 50,
"CO[C@@H]1CCN(c2nccc(Nc3cc4c(C(C)C)ccc(N5C[C@H](CS(C)(=O)=O)[C@H]5C)c4cn3)n2)C[C@H]1F (single isomer, unassigned) [Compound 279, N-{2-[(3S,4S)-3-fluoro-4-methoxypiperidin-1-yl]pyrimidin-4-yl}-8-[(2R,3S)-3-(methanesulfonylmethyl)-2-methylazetidin-1-yl]-5-(propan-2-yl)isoquinolin-3-amine or N-{2-[(3R,4R)-3-fluoro-4-methoxypiperidin-1-yl]pyrimidin-4-yl}-8-[(2R,3S)-3-(methanesulfonylmethyl)-2-methylazetidin-1-yl]-5-(propan-2-yl)isoquinolin-3-amine]",,,20.1 to 30
"CO[C@@H]1CCN(c2nccc(Nc3cc4c(C(C)C)ccc(N5C[C@H](CS(C)(=O)=O)[C@H]5C)c4cn3)n2)C[C@@H]1F [Compound 122, N-(2-((3S,4R)-3-fluoro-4-methoxypiperidin-1-yl)pyrimidin-4-yl)-5-isopropyl-8-((2R,3S)-2-methyl-3-((methylsulfonyl)methyl)azetidin-1-yl)isoquinolin-3-amine]",,≤ 10,
